Data as given in US9956181B2, “Composition of nanoformulated lycopene and method of using the composition” (priority 2015, dated 2018).

Tests used:
[1] = system: ovariectomized (OVX) rats; assay: OVX rat study: serum minerals, enzymes and hormones; format: in vivo, Wistar rats; conditions: OVX rats; lycopene 45 mg/kg/day; ALN 2.0 μg/kg/day sc; P<0.001
Experimental: (§1) A total of 264 Wistar female rats, ˜6 months old, were supplied by the Animal House at King Fahd Medical Research Center (KFMRC), KAU. Rats were housed in individual cages and maintained at 22° C. with a 12-h light/dark cycle. During the study period, rats were given standard rodent chow diet ad libitum (commercial rat cubes containing approximately 18% protein, 3% fat, 77% carbohydrate, and 2% of an inorganic-salt mixture with a vitamin supplement by weight, supplied by Grain Silos and Flour Mills Organization, Jeddah, Saudi Arabia) and water until the onset of intervention. Prior to surgery, rats were anesthetized with ketamine [(10% ketamine hydrochloride (80 mg/kg body weight), Cayman Chemical, Michigan, USA] and xylazine [(2% xylazine hydrochloride, 10 mg/kg body weight), Sigma-Aldrich Co., St. Louis, USA]. A single longitudinal skin incision was made on the dorsal midline at the level of the kidneys and both ovaries were ligated and removed to produce an ovariectomy in all OVX group animals. A SHAM-operated group, acting as a negative control for the effect of ovariectomy on bone parameters, underwent bilateral laparotomy, during which the ovaries were exposed but remained intact. […] The lycopene-supplemented groups were given lycopene (15, 30 and 45 mg/kg body weight per day) dissolved in corn oil by daily intra-gastric administration for the experimental period of 12 weeks. The SHAM, OVX and ALN control groups were given the same volume of corn oil without lycopene treatment. […] A 12-week randomized placebo-controlled study in order to examine the protective effects of lycopene supplementation on bone mass and fragility in OVX rats was concluded. Prior to surgery, body weight and bone mineral density (BMD) were obtained for all animals. Rats were randomized using a computer-generated randomization code into one of six groups: (1) sham-operated (SHAM; n=44); (2) ovariectomized control (OVX; n=44); (3) OVX lycopene-supplemented (15 mg/kg body weight per day) (n=44); (4) OVX lycopene-supplemented (30 mg/kg body weight per day) (n=44); (5) OVX lycopene-supplemented (45 mg/kg body weight per day) (n=44) and (6) OVX alendronate-treated (ALN) [2.0 μg/kg body weight per day subcutaneously (sc)] (n=44). Alendronate is an anti-resorptive agent for the treatment of osteoporosis and was used as a positive therapy control. […] All OVX groups were pair-fed with the SHAM group throughout the study to avoid the possible effects of ovariectomy-induced over-consumption and subsequent excessive weight gain. Treatment started 1 week after the surgery: this period of rest allowed the rats to recover from the stress associated with the surgery. […] Peripheral Quantitative CT (pQCT) scans were made of the proximal tibia metaphysis and the diaphysis. […]

[2] = system: ovariectomized (OVX) rats; assay: OVX rat study: biochemical bone turnover markers; format: in vivo, Wistar rats; conditions: ALN 2.0 μg/kg/day sc
Experimental: as §1

[3] = system: ovariectomized (OVX) rats; assay: OVX rat study: in vivo DXA densitometry of lumbar spine and humerus; design: species or system Wistar rats; conditions: 12 weeks, versus OVX control
Experimental: (§2) A total of 264 Wistar female rats, ˜6 months old, were supplied by the Animal House at King Fahd Medical Research Center (KFMRC), KAU. Rats were housed in individual cages and maintained at 22° C. with a 12-h light/dark cycle. During the study period, rats were given standard rodent chow diet ad libitum (commercial rat cubes containing approximately 18% protein, 3% fat, 77% carbohydrate, and 2% of an inorganic-salt mixture with a vitamin supplement by weight, supplied by Grain Silos and Flour Mills Organization, Jeddah, Saudi Arabia) and water until the onset of intervention. Prior to surgery, rats were anesthetized with ketamine [(10% ketamine hydrochloride (80 mg/kg body weight), Cayman Chemical, Michigan, USA] and xylazine [(2% xylazine hydrochloride, 10 mg/kg body weight), Sigma-Aldrich Co., St. Louis, USA]. A single longitudinal skin incision was made on the dorsal midline at the level of the kidneys and both ovaries were ligated and removed to produce an ovariectomy in all OVX group animals. A SHAM-operated group, acting as a negative control for the effect of ovariectomy on bone parameters, underwent bilateral laparotomy, during which the ovaries were exposed but remained intact. […] Peripheral Quantitative CT (pQCT) scans were made of the proximal tibia metaphysis and the diaphysis. […]

[4] = system: ovariectomized (OVX) rats; assay: OVX rat study: in vivo pQCT densitometry of tibia metaphysis; design: species or system Wistar rats; conditions: 12 weeks, versus OVX control, P<0.001
Experimental: as §2

[5] = system: ovariectomized (OVX) rats; assay: OVX rat study: ex vivo pQCT and biomechanical testing of lumbar spine and femur; format: in vivo, Wistar rats; conditions: 12 weeks
Experimental: as §1, with “surgery. In addition, after surgery, rats were administered Diclofenac sodium injection (20 mg/Kg body weight) to reduce the pain associated with the surgery. Rats were weighed and examined daily. Blood and urine samples were collected at baseline, during, and at the end of treatment for measurement of various BTMs and other analytes. In vivo dual energy x-ray absorptiometry (DXA) measurements were made for the bone mineral content (BMC) and BMD of the whole body, lumbar spine (L1-L4), and the right humerus, together with body composition at 12 weeks of treatment.” for “surgery.”

[6] = system: ovariectomized (OVX) rats; assay: OVX rat study: ex vivo μCT analysis of tibial metaphysis and femur diaphysis; format: in vivo, Wistar rats
Experimental: (§3) A total of 264 Wistar female rats, ˜6 months old, were supplied by the Animal House at King Fahd Medical Research Center (KFMRC), KAU. Rats were housed in individual cages and maintained at 22° C. with a 12-h light/dark cycle. During the study period, rats were given standard rodent chow diet ad libitum (commercial rat cubes containing approximately 18% protein, 3% fat, 77% carbohydrate, and 2% of an inorganic-salt mixture with a vitamin supplement by weight, supplied by Grain Silos and Flour Mills Organization, Jeddah, Saudi Arabia) and water until the onset of intervention. Prior to surgery, rats were anesthetized with ketamine [(10% ketamine hydrochloride (80 mg/kg body weight), Cayman Chemical, Michigan, USA] and xylazine [(2% xylazine hydrochloride, 10 mg/kg body weight), Sigma-Aldrich Co., St. Louis, USA]. A single longitudinal skin incision was made on the dorsal midline at the level of the kidneys and both ovaries were ligated and removed to produce an ovariectomy in all OVX group animals. A SHAM-operated group, acting as a negative control for the effect of ovariectomy on bone parameters, underwent bilateral laparotomy, during which the ovaries were exposed but remained intact. […] The lycopene-supplemented groups were given lycopene (15, 30 and 45 mg/kg body weight per day) dissolved in corn oil by daily intra-gastric administration for the experimental period of 12 weeks. The SHAM, OVX and ALN control groups were given the same volume of corn oil without lycopene treatment. […] A 12-week randomized placebo-controlled study in order to examine the protective effects of lycopene supplementation on bone mass and fragility in OVX rats was concluded. Prior to surgery, body weight and bone mineral density (BMD) were obtained for all animals. Rats were randomized using a computer-generated randomization code into one of six groups: (1) sham-operated (SHAM; n=44); (2) ovariectomized control (OVX; n=44); (3) OVX lycopene-supplemented (15 mg/kg body weight per day) (n=44); (4) OVX lycopene-supplemented (30 mg/kg body weight per day) (n=44); (5) OVX lycopene-supplemented (45 mg/kg body weight per day) (n=44) and (6) OVX alendronate-treated (ALN) [2.0 μg/kg body weight per day subcutaneously (sc)] (n=44). Alendronate is an anti-resorptive agent for the treatment of osteoporosis and was used as a positive therapy control. […] All OVX groups were pair-fed with the SHAM group throughout the study to avoid the possible effects of ovariectomy-induced over-consumption and subsequent excessive weight gain. Treatment started 1 week after the surgery: this period of rest allowed the rats to recover from the stress associated with the surgery. In addition, after surgery, rats were administered Diclofenac sodium injection (20 mg/Kg body weight) to reduce the pain associated with the surgery. Rats were weighed and examined daily. Blood and urine samples were collected at baseline, during, and at the end of treatment for measurement of various BTMs and other analytes. In vivo dual energy x-ray absorptiometry (DXA) measurements were made for the bone mineral content (BMC) and BMD of the whole body, lumbar spine (L1-L4), and the right humerus, together with body composition at 12 weeks of treatment. One day following the post-test DXA assessments (at 12 weeks, 16 rats in each group), animals were euthanized by decapitation and right and left femurs were extracted for further biomechanical and histomorphometric analyses. Blood and urine samples were collected from all experimental groups to measure biochemical analytes and BTMs at baseline and 4, 8, and 12 weeks of treatment. Peripheral Quantitative CT (pQCT) scans were made of the proximal tibia metaphysis and the diaphysis. In vivo micro-computed tomographic (μCT) scans of the proximal tibia were obtained during the treatment period to monitor changes in bone mass and microarchitecture. […]

[7] = system: ovariectomized (OVX) rats; assay: OVX rat study: dynamic bone histomorphometry of tibial metaphysis and diaphysis; format: in vivo, Wistar rats; conditions: ALN group, tibial diaphysis, for the most part
Experimental: as §3

[8] = 12 weeks, lycopene, ALN 2.0 μg/kg/day, P<0.001

NCCCC(O)(P(=O)(O)O)P(=O)(O)O [ALN, alendronate, reference compound]
serum PTH values versus other groups [1]: significantly higher | OVX-induced increases in s-CTX and u-DPD levels ([2]; P<0.001): prevented | s-OC and s-PINP levels compared with OVX control ([2]; week 12, P<0.001): significantly decreased | OVX-induced bone loss (BMC and BMD, lumbar spine and humerus, DXA) [3]: prevented | OVX-induced bone loss (total and trabecular BMD, proximal tibia, pQCT) [4]: prevented | OVX-induced decrease in cortical thickness ([5]; lycopene particularly 45 mg/kg/day, alendronate 2.0 μg/kg/day): prevented | lumbar spine biomechanical / bone strength parameters ([5]; lycopene particularly 30 and 45 mg/kg/day, ALN 2.0 μg/kg/day, P<0.05): significantly increased | decrease in Tb.Sp, tibia metaphysis (μCT), compared with OVX group [6, 8]: 37.3% | increase in BV/TV, tibia metaphysis (μCT), compared with OVX group [6, 8]: 128.9% | increase in Tb.N, tibia metaphysis (μCT), compared with OVX group [6, 8]: 25.8% | relative bone volume (BV/TV) of the femur diaphysis (μCT) ([6]; OVX rats, 12 weeks): nor lycopene or ALN treatment had significant effects | femoral cortical values for Ct.Th and Ct.Po (μCT) ([6]; lycopene 30 and 45 mg/kg/day, ALN, versus SHAM and OVX groups): improved | OVX-induced effects on cortical bone indices [7]: also prevented
